Residues, ends and D or L forms follow the SMILES beside them.
Tests used:
PIK3R3-N SH2 domain = target: T1, PIK3R3-N SH2 domain (Homo sapiens, UniProt Q92569); test: FP saturation binding assay; settings: high-confidence ErbB interactions
T1 construct: 6X His; thioredoxin; made in house; host or cells: E. coli BL21(DE3)pLysS
Protocol: (§1) (See Figure 1A) Rhodamine-labeled peptides were dissolved in assay buffer (20 mM HEPES, 100 mM KCl, 0.1% Tween-20, 5 mM DTT, pH 7.8), diluted to a concentration of 20 nM, and plated into black 384-well plates (Corning, Corning, NY) at 5 µL/well using a Perkin Elmer EP3 pipetting workstation (V&P Scientific, Inc., San Diego, CA). SH2, PTB, and thioredoxin control proteins were plated into the first column of 2 mL 96-well plates (Corning) at a concentration of 20 µM and serially diluted 1∶2 into freezing buffer (300 mM NaCl, 50 mM Na2PO4, pH 8, 20% glycerol v/v) eleven times using a Tecan Freedom EVO 100 workstation (Tecan, Männedorf, Switzerland). For the interaction assay, 5 µL of each of the twelve protein concentrations was added to the peptide-containing 384-well plates via the EP3 resulting in a protein dilution range of 0.002–10 µM and a final volume of 10 µL; peptide concentration was fixed at 10 nM. Peptide/protein samples were incubated for 20 minutes at room temperature in the dark and fluorescence polarization (FP) was measured in an Analyst GT multimode reader (Molecular Devices, Sunnyvale, CA) with excitation and emission wavelengths of 530 nm and 555 nm, respectively. Experimental values were output as millipolarization (mP) units and imported into MATLAB (The MathWorks, Inc., Natick, MA) in which equation (1) was used to determine dissociation constants (KDs) for each protein/peptide pairing by least squares nonlinear regression. [drawing 1] (1)
(§2) FP was described by the following equation: P=Iparallel-IperpendicularIparallel+Iperpendicular, where “P” denotes polarization, and “I” denotes the fluorescent intensity relative to the plane of incident light. Experimental values were output as millipolarization (mP) units and imported into MATLAB where the following equation was used to determine dissociation constants (KDs) for each protein/peptide pairing by least squares nonlinear regression:
(§3) Pobs=Pmax∙ProteinKD+Protein [picture] (1)
(§4) Peptides were initially tested for systematic plate effects across protein dilutions and nonspecific binding to thioredoxin by linear regression analysis and any effects were regressed out. The median baseline control polarization value for each plate was then subtracted from each data point to make each binding curve intersect at zero. Plates with excessive variation in baseline control polarizations on both a global and run-specific manner (Dixon’s Q test, p < 0.05) were excluded from further analysis. Outliers in each binding curve were identified and removed using an iterative procedure as follows. The residuals for each fit were used to calculate a global standard deviation of the residuals (GSDR) for each concentration of SH2 domain over all interactions, and individual data points with residuals < or > two GSDR from the global mean residual were flagged as outliers. The outlier with the largest residual from each interaction was removed and nonlinear regression was again performed. This procedure was repeated if additional outliers were identified for an interaction, discarding the interaction if the number of outliers exceeded three. […] In order to further control our false positive rate against hidden confounding variables producing binding artifacts, we sought to determine whether there was a significant relationship between the strength of an interaction and its technical replication rate at our stringent significance and filtering thresholds. We performed logistic regression on the proportion of successful replicates for each interaction query against KD for all interactions (Figure S15A). […] This is related to the observation that the majority of interactions detected by FP are tight (Figure S15B). With this logit model, we assigned a probability to each peptide-protein interaction in our data by using a binomial proportions test to compare the observed versus the expected replication rate at the particular KD of that interaction (Table S4). […]

[1] = target: T2, PLCG1-NC tandem SH2 domains (Homo sapiens, UniProt P19174); test: FP saturation binding assay; settings: Protein PLCG1-NC; FP saturation binding, high-confidence ErbB interactions; mean over replicate hits
T2 construct: the tandem protein was included in our analysis with all internal amino acids linking the domains; 6X His; thioredoxin; made in house; host or cells: E. coli BL21(DE3)pLysS
T2 sequence (P19174 550-756 limits assumed): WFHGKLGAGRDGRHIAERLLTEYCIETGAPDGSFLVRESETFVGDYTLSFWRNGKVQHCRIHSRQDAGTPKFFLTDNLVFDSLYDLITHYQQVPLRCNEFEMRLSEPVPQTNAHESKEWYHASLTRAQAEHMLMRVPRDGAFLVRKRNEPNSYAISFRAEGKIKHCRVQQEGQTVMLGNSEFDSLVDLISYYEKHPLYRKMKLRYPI
Protocol: as §1, with “Peptide/protein samples were incubated for 20 minutes at room temperature in the dark and fluorescence polarization (FP) was measured in an Analyst GT multimode reader (Molecular Devices, Sunnyvale, CA) with excitation and emission wavelengths of 530 nm and 555 nm, respectively.” left out
as §2, §3
Peptides were initially tested for systematic plate effects across protein dilutions and nonspecific binding to thioredoxin by linear regression analysis and any effects were regressed out. The median baseline control polarization value for each plate was then subtracted from each data point to make each binding curve intersect at zero. Plates with excessive variation in baseline control polarizations on both a global and run-specific manner (Dixon’s Q test, p < 0.05) were excluded from further analysis. Outliers in each binding curve were identified and removed using an iterative procedure as follows. The residuals for each fit were used to calculate a global standard deviation of the residuals (GSDR) for each concentration of SH2 domain over all interactions, and individual data points with residuals < or > two GSDR from the global mean residual were flagged as outliers. The outlier with the largest residual from each interaction was removed and nonlinear regression was again performed. This procedure was repeated if additional outliers were identified for an interaction, discarding the interaction if the number of outliers exceeded three. […] In order to further control our false positive rate against hidden confounding variables producing binding artifacts, we sought to determine whether there was a significant relationship between the strength of an interaction and its technical replication rate at our stringent significance and filtering thresholds. We performed logistic regression on the proportion of successful replicates for each interaction query against KD for all interactions (Figure S15A). […] “High-confidence” FP interactions are defined as those having 1 - P(Observed Replication Rate | Expectation) > 0.5 and that have replicated at least twice across independent FP runs. […] The compiled FP data were organized into heatmaps generated by MATLAB and relative binding strength (µM). Peptides without at least one positive hit were classified as “no interaction” if there was no homologous sequence (i.e. identical at the +1 to +4 positions relative to the phosphotyrosine) that produced a positive interaction within the ErbB receptor family.

[2] = target: PIK3R2-NC tandem SH2 domains (Homo sapiens, UniProt O00459); test: FP saturation binding assay
PIK3R2-NC tandem SH2 domains, sequence (O00459 330-716 limits assumed): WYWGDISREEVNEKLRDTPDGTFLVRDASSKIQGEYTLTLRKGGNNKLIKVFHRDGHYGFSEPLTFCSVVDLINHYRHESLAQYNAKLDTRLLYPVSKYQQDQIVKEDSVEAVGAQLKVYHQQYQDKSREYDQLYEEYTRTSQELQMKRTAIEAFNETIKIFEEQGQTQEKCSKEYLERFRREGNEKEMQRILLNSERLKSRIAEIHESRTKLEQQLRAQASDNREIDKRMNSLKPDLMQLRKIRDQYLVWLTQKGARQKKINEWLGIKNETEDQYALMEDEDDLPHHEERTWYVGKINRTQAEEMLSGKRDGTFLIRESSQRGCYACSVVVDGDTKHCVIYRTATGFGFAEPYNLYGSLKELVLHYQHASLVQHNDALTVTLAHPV

PIK3R1-N SH2 domain = target: T3, PIK3R1-N SH2 domain (Homo sapiens, UniProt P27986); test: biochemical; assay type: binding; settings: Protein PIK3R1-N; FP saturation binding, high-confidence ErbB interactions; mean over replicate hits
T3 construct: thioredoxin; made in house; host or cells: E. coli BL21(DE3)pLysS
T3 sequence (P27986 333-428 limits assumed): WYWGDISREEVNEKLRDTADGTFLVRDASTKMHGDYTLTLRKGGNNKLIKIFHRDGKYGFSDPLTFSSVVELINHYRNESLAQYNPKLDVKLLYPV

[3] = target: T4, PIK3R3-NC tandem SH2 domains (Homo sapiens, UniProt Q92569); test: FP saturation binding assay; settings: protein PIK3R3-NC; FP, high-confidence ErbB interactions; mean of replicate hits
T4 construct: the tandem protein was included in our analysis with all internal amino acids linking the domains; 6X His; thioredoxin; made in house; host or cells: E. coli BL21(DE3)pLysS
Protocol: as §1, §2, §3, §4

[4] = system: 93 human SH2 domains and 2 phosphotyrosine binding (PTB) domains; test: FP saturation binding assay, whole domain panel (protein named per line or not at all); settings: for interaction with the SH2/PTB domain panel: KD <= 20 µM counted as interaction; for SH2 domains found to interact: high-confidence interactions (Table S11, Figure S14)
Protocol: as §1
To scale up the number of interaction measurements while minimizing variation introduced by human intervention, we utilized an automated robotic platform (Figure 1A; see experimental procedures and Supplementary Methods) to transfer, incubate, and measure the fluorescence polarization (FP) induced from interactions of a titration series of SH2 domains with synthetic rhodamine-labeled ErbB phosphopeptides. Experimental values were output as millipolarization (mP) units and equation (1) was used to fit apparent midpoint dissociation constants (KDs) for each protein/peptide pair using non-linear regression (see experimental procedures).
For this interaction analysis, we synthesized and queried the interaction of phosphopeptides corresponding to 89 of 92 ErbB family intracellular tyrosines with 93 SH2 domains. Because nine peptide sequences share 100% identity between the receptors in the 4 to 7 amino acids C-terminal to the phosphorylated tyrosine, our peptide set consisted of 81 phosphopeptides corresponding to the 89 unique tyrosine containing sequences (Table S2). This peptide set represents a 50% increase over the three PM studies performed to date. We were therefore able to obtain a more systematic and unbiased view of the relative SH2 domain recruitment potential of each receptor. Although most ErbB receptor auto-phosphorylation sites have been detected frequently by mass spectrometry because of their high relative modification stoichiometry, non-auto-phosphorylation sites have been reported less frequently in the literature (Table S3). We reasoned that many physiologically relevant and uncharacterized ErbB tyrosines of low phosphorylation stoichiometry may exist and that our comprehensive interaction analysis might implicate their importance in mediating physiological interactions. We tested the majority of interactions (7099/8160 (87.0%); Figure S3) three or more times and reported standard error for all interactions that were detected in at least three FP runs (Table S4). […] Analysis of this polarization data may be useful for inferring how SH2 proteins bind to different peptide sequences. Larger proteins and proteins binding closer to the N-terminal rhodamine tag of a given peptide would be expected to induce higher maximal polarization (the calculated maximal polarization value at infinite protein concentration) than proteins binding farther from the tag. In addition to phosphopeptides, we queried a representative set of 27 non-phosphopeptides against the entire domain set. […]

In the case of `CC(C)C[C@H](NC(=O)CNC(=O)[C@H](CC(C)C)NC(=O)[C@H](Cc1ccc(OP(=O)(O)O)cc1)NC(=O)[C@H](CCC(=O)O)NC(=O)[C@@H]1CCCN1C(=O)[C@H](CC(N)=O)NC(=O)[C@@H](N)CCC(=O)O)C(=O)N[C@@H](CC(=O)O)C(=O)N[C@H](C(=O)N1CCC[C@H]1C(=O)N[C@H](C(=O)N[C@@H](CC(=O)O)C(=O)O)C(C)C)C(C)C` [ErbB2 1248 13-mer] (HELM PEPTIDE1{E.N.P.E.[O=C([C@H](Cc1ccc(OP(=O)(O)O)cc1)N[*:1])[*:2]].L.G.L.D.V.P.V.D}$$$$V2.0), the Kd (PIK3R3-N SH2 domain; Protein PIK3R3-N, FP saturation binding, mean over replicate hits) is reported as 11.2 µM, the Kd [1] is reported as 9.97 µM and the Kd [2] is reported as 9.9 µM.
With `CSCC[C@H](NC(=O)[C@@H]1CCCN1C(=O)[C@H](CCSC)NC(=O)[C@H](Cc1ccc(OP(=O)(O)O)cc1)NC(=O)CNC(=O)[C@H](CO)NC(=O)[C@H](CO)NC(=O)[C@@H]1CCCN1)C(=O)N[C@@H](CC(N)=O)C(=O)N[C@@H](CCC(N)=O)C(=O)NCC(=O)N[C@@H](CC(N)=O)C(=O)N[C@@H](CC(=O)O)C(=O)O` [ErbB3 1054 13-mer] (HELM PEPTIDE1{P.S.S.G.[O=C([C@H](Cc1ccc(OP(=O)(O)O)cc1)N[*:1])[*:2]].M.P.M.N.Q.G.N.D}$$$$V2.0) the Kd (PIK3R1-N SH2 domain) was 1.8 µM and the Kd [3] was 0.26 µM.
`CSCC[C@H](NC(=O)[C@H](Cc1ccc(O)cc1)NC(=O)[C@H](CCC(=O)O)NC(=O)[C@H](Cc1ccc(OP(=O)(O)O)cc1)NC(=O)[C@H](CCC(=O)O)NC(=O)[C@H](CCC(=O)O)NC(=O)[C@H](CC(=O)O)NC(=O)[C@@H](N)CCC(=O)O)C(=O)N[C@@H](CC(N)=O)C(=O)N[C@@H](CCCNC(=N)N)C(=O)N[C@@H](CCCNC(=N)N)C(=O)N[C@@H](CCCNC(=N)N)C(=O)N[C@@H](CC(=O)O)C(=O)O` [ErbB3 1197 13-mer] (HELM PEPTIDE1{E.D.E.E.[O=C([C@H](Cc1ccc(OP(=O)(O)O)cc1)N[*:1])[*:2]].E.Y.M.N.R.R.R.D}$$$$V2.0) was tested, and the Kd (PIK3R3-N SH2 domain; protein PIK3R3-N, FP, mean of replicate hits) was 1.32 µM and the Kd [3] was 0.2 µM.
With “DAEEpYLVPQAFN [ErbB4 pY1022, N-terminally rhodamine-labeled 13-mer phosphopeptide]” the “interaction with the SH2/PTB domain panel” value [4] was “did not produce any interaction hits”.
For “DVWSpYGVTIWELd [ErbB4 pY906, N-terminally rhodamine-labeled 13-mer phosphopeptide]”, the “interaction with the SH2/PTB domain panel” value [4] was “reproducibly interacted at high affinity with many SH2 domains” and the “SH2 domains found to interact” value [4] was “interacted with ZAP70, GRB7, and GRB10 SH2 domains”.
In the case of “KIRKpYTMRRLLQd [ErbB2 pY685, N-terminally rhodamine-labeled 13-mer phosphopeptide]”, the “interaction with the SH2/PTB domain panel” value [4] is reported as “reproducibly interacted at high affinity with many SH2 domains” and the “SH2 domains found to interact” value [4] is reported as “interacted with SOCS family SH2 domains”.

Source: publication PMC3433420 (PLoS ONE, 2012)
